One assay deals with T1, human TLR7 (Homo sapiens, UniProt Q9NYK1).
T1 construct: host or cells: HEK-Blue TLR7 cells (engineered human embryonic kidney cells)
T1 sequence (Q9NYK1 27-1049): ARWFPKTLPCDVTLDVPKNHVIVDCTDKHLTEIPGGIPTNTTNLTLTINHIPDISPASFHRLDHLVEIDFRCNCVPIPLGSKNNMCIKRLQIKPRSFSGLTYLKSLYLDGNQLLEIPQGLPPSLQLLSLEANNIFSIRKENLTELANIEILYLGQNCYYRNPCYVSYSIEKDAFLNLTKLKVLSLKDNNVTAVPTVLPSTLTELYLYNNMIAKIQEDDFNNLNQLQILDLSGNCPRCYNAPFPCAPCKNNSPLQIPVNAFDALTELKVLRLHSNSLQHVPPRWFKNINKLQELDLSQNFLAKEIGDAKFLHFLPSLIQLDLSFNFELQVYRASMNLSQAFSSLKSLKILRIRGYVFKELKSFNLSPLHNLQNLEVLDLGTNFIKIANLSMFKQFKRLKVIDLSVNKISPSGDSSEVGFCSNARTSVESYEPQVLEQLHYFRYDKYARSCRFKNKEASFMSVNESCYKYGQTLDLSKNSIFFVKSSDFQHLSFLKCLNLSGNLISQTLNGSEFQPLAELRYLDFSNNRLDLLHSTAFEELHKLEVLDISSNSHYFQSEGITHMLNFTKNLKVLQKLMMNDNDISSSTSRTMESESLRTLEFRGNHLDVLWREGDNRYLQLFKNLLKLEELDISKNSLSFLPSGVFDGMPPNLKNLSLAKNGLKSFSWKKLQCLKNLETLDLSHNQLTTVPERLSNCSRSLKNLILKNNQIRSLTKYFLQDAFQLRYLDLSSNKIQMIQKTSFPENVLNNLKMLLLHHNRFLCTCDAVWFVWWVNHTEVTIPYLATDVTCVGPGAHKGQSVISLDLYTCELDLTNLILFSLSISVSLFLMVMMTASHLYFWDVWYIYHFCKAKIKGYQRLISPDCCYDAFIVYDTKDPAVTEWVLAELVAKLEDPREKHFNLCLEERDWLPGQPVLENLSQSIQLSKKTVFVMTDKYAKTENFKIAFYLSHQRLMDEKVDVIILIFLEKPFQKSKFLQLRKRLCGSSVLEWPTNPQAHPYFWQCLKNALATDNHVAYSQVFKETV
The assay is described as follows: Human TLR7 agonist activity reporter assay (HEK-Blue TLR7 cells, SEAP reporter). Format: cell-based. The settings on record: human TLR7 (hTLR7) reporter assay, SEAP readout after 18 h, average where assay repeated, read-out: TLR7 Agonism EC50. Here is the method:
Human TLR7 Agonist Activity Assay
This procedure describes a method for assaying human TLR7 (hTLR7) agonist activity of the compounds disclosed in this specification.
HEK-Blue™ TLR7 cells were added to each well of a 384-well tissue-culture plate (15,000 cells per well) and incubated 16-18 h at 37° C., 5% CO2. Compounds (100 nl) were dispensed into wells containing the HEK-Blue™ TLR cells and the treated cells were incubated at 37° C., 5% CO2. After 18 h treatment ten microliters of freshly-prepared Quanti-Blue™ reagent (Invivogen) was added to each well, incubated for 30 min (37° C., 5% CO2) and SEAP levels measured using an Envision plate reader (OD=620 nm).
In general terms: In a reporter assay the amount or activity of a reporter protein is the signal.

A further assay has as its system CD69. The assay is described as follows: Induction of CD69 in human whole blood. Format: cell-based. The settings on record: 17 hrs incubation, CD69 surface staining, 100% set to 1 uM of resiquimod, average where assay repeated, read-out: hWB CD69 EC50. The method, then:
Induction of Type I Interferon Genes (MX-1) and CD69 in Human Blood
The induction of Type I interferon (IFN) MX-1 genes and the B-cell activation marker CD69 are downstream events that occur upon activation of the TLR7 pathway. The following is a human whole blood assay that measures their induction in response to a TLR7 agonist.
Heparinized human whole blood was harvested from human subjects and treated with test TLR7 agonist compounds at 1 mM. The blood was diluted with RPMI 1640 media and Echo was used to predot 10 nL per well giving a final concentration of 1 uM (10 nL in 10 uL of blood). After mixing on a shaker for 30 sec, the plates were covered and placed in a 37° C. chamber for o/n=17 hrs. Fixing/lysis buffer was prepared (5×→1× in H2O, warm at 37° C.; Cat #BD 558049) and kept the perm buffer (on ice) for later use.
For surface markers staining (CD69): prepared surface Abs: 0.045 ul hCD14-FITC (ThermoFisher Cat #MHCD1401)+0.6 ul hCD19-ef450 (ThermoFisher Cat #48-0198-42)+1.5 ul hCD69-PE (cat #BD555531)+0.855 ul FACS buffer. Added 3 ul/well, spin 1000 rpm for 1 min and mixed on shaker for 30 sec, put on ice for 30 min. Stop stimulation after 30 minutes with 70 uL of prewarmed 1× fix/lysis buffer and use Feliex mate to resuspend (15 times, change tips for each plate) and incubate at 37 C for 10 minutes.
Centrifuge at 2000 rpm for 5 minutes aspirate with HCS plate washer, mix on shaker for 30 sec and then wash with 70 uL in dPBS and pelleted 2×s (2000 rpm for 5 min) and 50 ul wash in FACS buffer pelleted 1×s (2000 rpm for 5 min). Mix on shaker for 30 sec. For Intracellular markers staining (MX-1): Add 50 ul of BD Perm buffer III and mix on shaker for 30 sec. Incubate on ice for 30 minutes (in the dark). Wash with 50 uL of FACS buffer 2× (spin @2300 rpm×5 min after perm) followed by mixing on shaker for 30 sec. Resuspended in 20 ul of FACS buffer containing MX1 antibody ( )(4812)-Alexa 647: Novus Biologicals #NBP2-43704AF647) 20 ul FACS bf+0.8 ul hIgG+0.04 ul MX-1. Spin 1000 rpm for 1 min, mix on shaker for 30 se and the samples were incubated at RT in the dark for 45 minutes followed by washing 2×FACS buffer (spin @2300 rpm×5 min after perm). Resuspend 20 ul (35 uL total per well) of FACS buffer and cover with foil and place in 4° C. to read the following day. Plates were read on iQuePlus. The results were loaded into toolset and […] curves are generated in curve master. The y-axis 100% is set to 1 uM of resiquimod.

pEC50: −log10 of the molar value.

One may read the pEC50 as the negative decadic logarithm of the EC50, by convention in mol/L. For the compound `CCCCNc1nc(N)nc2cnn(Cc3ccc(CNC4CCOCC4)c4cccnc34)c12` [Compound 109, N7-butyl-1-[(5-{[(oxan-4-yl)amino]methyl}quinolin-8-yl)methyl]-1H-pyrazolo[4,3-d]pyrimidine-5,7-diamine], the pEC50 on human TLR7 was 7.26; with CD69, 7.38.
For the compound `Cc1cc(CNc2nc(N)nc3cnn(Cc4ccc(C(=O)N5CC6(CN(C)C6)C5)c5cccnc45)c23)no1` [Compound 138, N7-[(5-methyl-1,2-oxazol-3-yl)methyl]-1-[(5-{6-methyl-2,6-diazaspiro[3.3]heptane-2-carbonyl}quinolin-8-yl)methyl]-1H-pyrazolo[4,3-d]pyrimidine-5,7-diamine], the pEC50 on human TLR7 was 6.56; in the assay with CD69, 7.38.
As to `CCC[C@@H](CCO)Nc1nc(N)nc2cnn(Cc3ccc(CNC4CCOCC4)c4cccnc34)c12` [Compound 104, (3S)-3-({5-amino-1-[(5-{[(oxan-4-yl)amino]methyl}quinolin-8-yl)methyl]-1H-pyrazolo[4,3-d]pyrimidin-7-yl}amino)hexan-1-ol], in the assay on CD69, the pEC50 is 7.87.
Regarding `CCC[C@@H](CCO)Nc1nc(N)nc2cnn(Cc3ccc(CN4CC5(CCOCC5)C4)c4cccnc34)c12` [Compound 106, (3S)-3-[(5-amino-1-{[5-({7-oxa-2-azaspiro[3.5]nonan-2-yl}methyl)quinolin-8-yl]methyl}-1H-pyrazolo[4,3-d]pyrimidin-7-yl)amino]hexan-1-ol], the pEC50 at human TLR7 was 7.71; in the assay with CD69 it was 7.32.
Regarding `CCC[C@@H](CCO)Nc1nc(N)nc2cnn(Cc3ccc(C(=O)NC4CCN(C)CC4)c4cccnc34)c12` [Compound 121, 8-[(5-amino-7-{[(3S)-1-hydroxyhexan-3-yl]amino}-1H-pyrazolo[4,3-d]pyrimidin-1-yl)methyl]-N-(1-methylpiperidin-4-yl)quinoline-5-carboxamide], the results for the pEC50 on human TLR7 and in the assay on CD69 were 6.57 and 6.82, respectively.
The corresponding values for `CCC[C@@H](CCO)Nc1nc(N)nc2cnn(Cc3ccc(C(=O)NC4CCOCC4)c4cccnc34)c12` [Compound 114, 8-[(5-amino-7-{[(3S)-1-hydroxyhexan-3-yl]amino}-1H-pyrazolo[4,3-d]pyrimidin-1-yl)methyl]-N-(oxan-4-yl)quinoline-5-carboxamide] are 7.12 and 6.43.
Take `CCC[C@@H](CCO)Nc1nc(N)nc2cnn(Cc3ccc(C(=O)N4CC5(COC5)C4)c4cccnc34)c12` [Compound 127, (3S)-3-({5-amino-1-[(5-{2-oxa-6-azaspiro[3.3]heptane-6-carbonyl}quinolin-8-yl)methyl]-1H-pyrazolo[4,3-d]pyrimidin-7-yl}amino)hexan-1-ol]: the results for the negative logarithm of the EC50 (pEC50) at human TLR7 and with CD69 were 7.26 and 7.04, respectively.
Taken in the same sequence, the figures for `CCCCNc1nc(N)nc2cnn(Cc3ccc(CN4CCOCC4)c4cccnc34)c12` [Compound 107, N7-butyl-1-({5-[(morpholin-4-yl)methyl]quinolin-8-yl}methyl)-1H-pyrazolo[4,3-d]pyrimidine-5,7-diamine] were 6.81 and 6.49.
The corresponding values for `CCC[C@@H](CCO)Nc1nc(N)nc2cnn(Cc3ccc(C(=O)N4CC5(CNC5)C4)c4cccnc34)c12` [Compound 124, (3S)-3-({5-amino-1-[(5-{2,6-diazaspiro[3.3]heptane-2-carbonyl}quinolin-8-yl)methyl]-1H-pyrazolo[4,3-d]pyrimidin-7-yl}amino)hexan-1-ol] are 6.36 and 6.61.
With `CCC[C@@H](CCO)Nc1nc(N)nc2cnn(Cc3ccc(C(=O)N4CC(CCOC)C4)c4cccnc34)c12` [Compound 128, (3S)-3-{[5-amino-1-({5-[3-(2-methoxyethyl)azetidine-1-carbonyl]quinolin-8-yl}methyl)-1H-pyrazolo[4,3-d]pyrimidin-7-yl]amino}hexan-1-ol], the pEC50 on human TLR7 was 7.26; with CD69, 6.99.
In the case of `CCC[C@@H](CCO)Nc1nc(N)nc2cnn(Cc3ccc(C4CCN(C5CCOCC5)CC4)c4cccnc34)c12` [Compound 142, (3S)-3-{[5-amino-1-({5-[1-(oxan-4-yl)piperidin-4-yl]quinolin-8-yl}methyl)-1H-pyrazolo[4,3-d]pyrimidin-7-yl]amino}hexan-1-ol], the pEC50 at human TLR7 is 8.07.
Turning to `CCC[C@@H](CCO)Nc1nc(N)nc2cnn(Cc3ccc(C(=O)N(C)C4CCOCC4)c4cccnc34)c12` [Compound 129, 8-[(5-amino-7-{[(3S)-1-hydroxyhexan-3-yl]amino}-1H-pyrazolo[4,3-d]pyrimidin-1-yl)methyl]-N-methyl-N-(oxan-4-yl)quinoline-5-carboxamide], the pEC50 in the assay on CD69 was 7.08.
On to `CCC[C@@H](CCO)Nc1nc(N)nc2cnn(Cc3ccc(C(=O)N4CC5(CN(C)C5)C4)c4cccnc34)c12` [Compound 130, (3S)-3-({5-amino-1-[(5-{6-methyl-2,6-diazaspiro[3.3]heptane-2-carbonyl}quinolin-8-yl)methyl]-1H-pyrazolo[4,3-d]pyrimidin-7-yl}amino)hexan-1-ol], for which the pEC50 in the assay on CD69 is 7.30.
Same read-out and setting: with `CCC[C@@H](CCO)Nc1nc(N)nc2cnn(Cc3ccc(C(=O)N4CC(CCO)C4)c4cccnc34)c12` [Compound 132, (3S)-3-{[5-amino-1-({5-[3-(2-hydroxyethyl)azetidine-1-carbonyl]quinolin-8-yl}methyl)-1H-pyrazolo[4,3-d]pyrimidin-7-yl]amino}hexan-1-ol] the figure was 6.99.
On to `CCC[C@@H](CCO)Nc1nc(N)nc2cnn(Cc3ccc(C4CCN(C(C)C)CC4)c4cccnc34)c12` [Compound 143, (3S)-3-{[5-amino-1-({5-[1-(propan-2-yl)piperidin-4-yl]quinolin-8-yl}methyl)-1H-pyrazolo[4,3-d]pyrimidin-7-yl]amino}hexan-1-ol], for which the negative logarithm of the EC50 (pEC50) at human TLR7 is 8.21.
`CCC[C@@H](CCO)Nc1nc(N)nc2cnn(Cc3ccc(C(=O)N4CCN(CCOC)CC4)c4cccnc34)c12` [Compound 131, (3S)-3-{[5-amino-1-({5-[4-(2-methoxyethyl)piperazine-1-carbonyl]quinolin-8-yl}methyl)-1H-pyrazolo[4,3-d]pyrimidin-7-yl]amino}hexan-1-ol]: in the assay with CD69, the pEC50 is 7.04.

For the origin of these results see US12485123B2, “1H-pyrazolo[4,3-d]pyrimidine compounds as toll-like receptor 7 (TLR7) agonists” (BRISTOL-MYERS SQUIBB COMPANY, priority 2020, dated 2025).
